Common to all, as to assay type: cell-based
Assay [1] deals with FGFR2. The assay can be described thus: FGFR phosphorylation in KATO III cells (Western blotting, Wes). The method, then:
For assessment of the effect of RPT835 inhibitor characterized in this invention with formula II, stomach cancer cells KATO III, which express FGFR2, were used for FRS2 phosphorylation. FGF-2 in concentration of 1 mg/ml and heparin 10 mg/ml were added to the cells for stimulation of FGFR. RPT835 was added in various concentrations. A part of the cells was left without adding the inhibitor, and a part of the cells—without adding either inhibitor, or stimulating agents (control group).
(§1) Two standard methods for assessment of the phosphorylation level of FGFR and FRS2: • Western blotting using manual work; • Automatic capillary electrophoresis and immunodetection using automatic system Wes™ (ProteinSimple; SantaClara, Calif.).
Like in Example 1, stomach cancer cells KATO III strongly expressing FGFR2 were used. A part of cells stimulated FGF-2 in concentration 1 mg/ml and heparin 10 mg/ml. The other part of the cells was left without stimulation. Inhibitor RPT835 in dose 1, 10, 100, 1000 nM was added to cells. The control group left without addition of RPT835.
The level of FGFR phosphorylation was assessed using standard Western-blotting and automatic capillary electrophoresis with immune-detection and use of automatic system Wes™ (ProteinSimple; SantaClara, Calif.).

The target of assay [2] is T1, FGFR1 (Homo sapiens, UniProt P11362).
T1 construct: endogenous in cells; host or cells: HUVEC, Caki-1, KATO III
T1 sequence (P11362 22-822): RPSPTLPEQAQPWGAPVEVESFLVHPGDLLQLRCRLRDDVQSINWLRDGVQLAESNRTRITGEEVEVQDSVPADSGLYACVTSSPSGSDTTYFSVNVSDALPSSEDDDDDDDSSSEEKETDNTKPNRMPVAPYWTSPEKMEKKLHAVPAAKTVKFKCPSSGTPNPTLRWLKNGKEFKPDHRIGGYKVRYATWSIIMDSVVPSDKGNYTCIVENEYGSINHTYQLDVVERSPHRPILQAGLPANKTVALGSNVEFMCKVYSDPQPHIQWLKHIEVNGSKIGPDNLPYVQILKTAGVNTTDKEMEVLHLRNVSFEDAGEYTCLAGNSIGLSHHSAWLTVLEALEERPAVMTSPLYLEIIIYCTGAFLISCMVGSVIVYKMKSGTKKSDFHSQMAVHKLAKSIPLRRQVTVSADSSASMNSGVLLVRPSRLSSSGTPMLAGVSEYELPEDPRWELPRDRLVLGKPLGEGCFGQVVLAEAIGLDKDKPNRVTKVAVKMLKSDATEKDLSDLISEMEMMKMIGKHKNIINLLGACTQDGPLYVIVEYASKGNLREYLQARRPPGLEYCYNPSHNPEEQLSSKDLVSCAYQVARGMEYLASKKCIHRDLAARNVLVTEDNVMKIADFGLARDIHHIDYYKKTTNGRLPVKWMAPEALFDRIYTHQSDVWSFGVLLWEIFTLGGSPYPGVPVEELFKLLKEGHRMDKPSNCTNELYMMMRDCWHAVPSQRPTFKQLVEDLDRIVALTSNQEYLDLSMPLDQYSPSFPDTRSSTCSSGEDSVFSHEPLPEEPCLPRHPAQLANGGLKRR
The assay can be described thus: FGFR1 phosphorylation in breast cancer cells MDA MB 134. The note with it: MDA MB 134 cells. The source says: (§2) The purpose of this research was assessment of specific action of inhibitor RPT835 specified in this invention with formula II, on interaction of […] and FRS2 and assessment of influence on interaction of other types of FGFR and FRS2. For the experiment, 2 cell lines were selected: • stomach cancer KATO III, expressing FGFR2, and • breast cancer MDA MB 134, expressing FGFR1.
(§3) The research procedure was the same as in the previous examples: the cells were cultivated in presence of RPT835 followed by stimulation with FGF-2 and heparin. The other part of the cells was cultivated in presence of RPT835. Phosphorylation of FGFR1 (in breast cancer cells) and FGFR2 (in stomach cancer cells), and also FRS2a (in the both cell lines) and some intracellular kinases (in breast cancer cells) was assessed using manual and automated Western blotting.

Assay [3] concerns intracellular kinases. Nature of the assay: Intracellular kinases phosphorylation in breast cancer cells MDA MB 134. The following applies: MDA MB 134 cells.
Description: as §2, §3

Assay [4] has as its system SVEC-4-10 endothelial cells. Nature of the assay: Crystal Violet proliferation assay, SVEC-4-10. The note with it: SVEC-4-10, strongly expresses FGFR2; bFGF 100 ng/ml, 7 days. The source says: This research used additional cell lines: SKOV3 (ovarian cancer, ATCC # HTB-77), HS578T (breast cancer, ATCC # HTB-126), T47D (breast cancer, ATCC #HTB-1336), modified line of non-small cells lung cancer A549, line of metastatic melanoma of skin Mel Kor (RF Patent No. 2287578), and additional study of antiangiogenic activity—cell line SVEC-4-10 (endothelial cells, ATCC #CRL-2181).
The cells were cultivated in environment RPMI-1640 (PANECO) (SKOV3, HS578T, T47D, Mel-Kor) or DMEM (PANECO) (SVEC-4-10) containing 10% of embryonal serum cattle (FCS, HyClone), 2 mM glutamine (PANECO), antibiotics (100 IU/mL penicillin and […] streptomycin (all PANECO)) at 37° C. and 5% CO2. Cells at 70-80% monolayer were used for the experiments.
The cells were planted in low density (30 t of cells/ml) in triplets on a 96-cavity plate in an environment containing 0.1% of FCS serum. […] Growth of cells was determined by the modified “Crystal Violet mitogenic method” for 7 days after the experiment start. […] The dye was dissolved in ethanol and measured on a spectrophotometer at 540-560 nm. The curve of cell proliferative activity inhibition was built by the dependence of the percent of the cell quantity (Y axis) on concentration of inhibitor RPT835 in the cavity of the plate (X axis). […]

The target in assay [5] is T2, FRS2 (Homo sapiens, UniProt Q8WU20).
T2 sequence (Q8WU20 1-508): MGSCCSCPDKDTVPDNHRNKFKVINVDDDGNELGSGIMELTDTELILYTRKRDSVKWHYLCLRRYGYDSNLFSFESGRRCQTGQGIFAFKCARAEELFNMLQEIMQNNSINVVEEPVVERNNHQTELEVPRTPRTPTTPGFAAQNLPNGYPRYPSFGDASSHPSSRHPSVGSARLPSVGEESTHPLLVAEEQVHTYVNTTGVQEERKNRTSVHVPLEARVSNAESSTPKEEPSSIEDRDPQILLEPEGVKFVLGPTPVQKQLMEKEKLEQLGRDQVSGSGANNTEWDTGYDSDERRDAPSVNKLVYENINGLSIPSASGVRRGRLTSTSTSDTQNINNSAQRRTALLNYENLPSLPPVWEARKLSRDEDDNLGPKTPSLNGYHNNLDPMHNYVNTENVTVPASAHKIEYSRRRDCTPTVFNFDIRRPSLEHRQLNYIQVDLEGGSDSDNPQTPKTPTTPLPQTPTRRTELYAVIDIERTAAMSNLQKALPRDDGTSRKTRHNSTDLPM
Nature of the assay: FRS2 phosphorylation in FGF-2/heparin-stimulated KATO III cells (Western blotting, Wes). Also noted: endogenous in cells. The method, then: For assessment of the effect of RPT835 inhibitor characterized in this invention with formula II, stomach cancer cells KATO III, which express FGFR2, were used for FRS2 phosphorylation. […] RPT835 was added in various concentrations. A part of the cells was left without adding the inhibitor, and a part of the cells—without adding either inhibitor, or stimulating agents (control group).
as §1, §2, §3

Some results are limits rather than exact numbers.

Regarding `Cc1cc([N+](=O)[O-])c(NS(=O)(=O)c2cccc(C(=O)O)c2)cc1-c1cccnc1` [RPT835, 3-(N-(4-methyl-2-nitro-5-(pyridin-3-yl)phenyl)sulfamoyl)benzoic acid], in assay [1] (KATO III cells, 1, 10, 100, 1000 nM), the “phosphorylation of FGFR2 stimulated by FGF-2 (tyrosine kinase activity)” value was “did not have any effect”. Besides, the “phosphorylation of general FGFR” value in assay [1] (KATO III cells, with and without FGF-2 stimulation) is recorded as “without influence on phosphorylation of general FGFR”. In assay [2], the “phosphorylation of FGFR1” value is listed as “did not have influence”. For the same compound, the “phosphorylation of intracellular kinases” value in assay [3] was “did not have influence”. The “inhibition of proliferative activity” value in assay [4] is “maximum inhibiting effect”. In assay [5] (FGF-2 and heparin stimulation, read-out: concentration of the semi-maximal inhibiting (IC50) of FRS2 phosphorylation), the IC50 was under 10 nM. For the same compound, the “Suppression of FRS2α phosphorylation” value in assay [5] (concentration of 10 nM) is on record as over 50%. Also, the “phosphorylation of FRS2α (FGFR2 system)” value in assay [5] (dose of 100 nM) was “completely decreased phosphorylation of FRS2α (FGFR2 system) to the initial level”.
